Experimental data taken from paper PMC7317746 (Environmental and Molecular Mutagenesis, 2020).

System: male Sprague Dawley rats
Assay: Pig‐a assay
Type: in vivo, rat
[1] = 1-Month Study, 250 mg/kg/day, Day 15
[2] = 1-Month Study, 250 mg/kg/day, Day 29
[3] = 1-Month Study, 250 mg/kg/day, Day -1 (pre-treatment)
[4] = 1-Month Study, 500 mg/kg/day, Day 15
[5] = 1-Month Study, 500 mg/kg/day, Day 29
[6] = 1-Month Study, 500 mg/kg/day, Day -1 (pre-treatment)
[7] = 1-Month Study, 1,000 mg/kg/day Days 1-29, Day 57 recovery group
[8] = 1-Month Study, 1,000 mg/kg/day, Day 15
[9] = 1-Month Study, 1,000 mg/kg/day, Day 29
[10] = 1-Month Study, 1,000 mg/kg/day, Day -1 (pre-treatment)
[11] = 2-Week Study, 250 mg/kg/day Days 1-15, Day 16
[12] = 2-Week Study, 500 mg/kg/day Days 1-15, Day 16
[13] = 2-Week Study, 1,000 mg/kg/day Days 1-15, Day 16
[14] = 3-Day Study, 500 mg/kg/day Days 1-3, Day 15
[15] = 3-Day Study, 500 mg/kg/day Days 1-3, Day 30
[16] = 3-Day Study, 500 mg/kg/day Days 1-3, Day 45
[17] = 3-Day Study, 500 mg/kg/day, Day -4 (pre-treatment)
[18] = 3-Day Study, 1,000 mg/kg/day Days 1-3, Day 15

CC(=O)Nc1ccc(O)cc1 [acetaminophen, Acetaminophen]
%RETs mean ± SD [1]: 3.7 ± 0.7% | Number of CD59‐Neg RBCs per 10^6 RBCs mean ± SD [1]: 0.6 ± 0.4 per 10^6 RBCs | Number of CD59‐Neg RETs per 10^6 RETs mean ± SD [1]: 1.8 ± 2.8 per 10^6 RETs | %RETs mean ± SD [2]: 2.9 ± 0.4% | Number of CD59‐Neg RBCs per 10^6 RBCs mean ± SD [2]: 0.9 ± 0.3 per 10^6 RBCs | Number of CD59‐Neg RETs per 10^6 RETs mean ± SD [2]: 3.0 ± 2.2 per 10^6 RETs | %RETs mean ± SD [3]: 5.2 ± 0.6% | Number of CD59‐Neg RBCs per 10^6 RBCs mean ± SD [3]: 0.7 ± 0.8 per 10^6 RBCs | Number of CD59‐Neg RETs per 10^6 RETs mean ± SD [3]: 0.6 ± 0.6 per 10^6 RETs | %RETs mean ± SD [4]: 3.2 ± 0.5% | Number of CD59‐Neg RBCs per 10^6 RBCs mean ± SD [4]: 0.3 ± 0.2 per 10^6 RBCs | Number of CD59‐Neg RETs per 10^6 RETs mean ± SD [4]: 1.0 ± 1.0 per 10^6 RETs | %RETs mean ± SD [5]: 2.0 ± 0.4 % | Number of CD59‐Neg RBCs per 10^6 RBCs mean ± SD [5]: 0.5 ± 0.1 per 10^6 RBCs | Number of CD59‐Neg RETs per 10^6 RETs mean ± SD [5]: 1.7 ± 1.9 per 10^6 RETs | %RETs mean ± SD [6]: 5.5 ± 1.3 % | Number of CD59‐Neg RBCs per 10^6 RBCs mean ± SD [6]: 0.3 ± 0.1 per 10^6 RBCs | Number of CD59‐Neg RETs per 10^6 RETs mean ± SD [6]: 0.6 ± 0.7 per 10^6 RETs | %RETs mean ± SD [7]: 2.8 ± 0.6% | Number of CD59‐Neg RBCs per 10^6 RBCs mean ± SD [7]: 0.9 ± 0.5 per 10^6 RBCs | Number of CD59‐Neg RETs per 10^6 RETs mean ± SD [7]: 0.5 ± 0.4 per 10^6 RETs | %RETs mean ± SD [8]: 2.8 ± 1.4% | Number of CD59‐Neg RBCs per 10^6 RBCs mean ± SD [8]: 0.6 ± 0.4 per 10^6 RBCs | Number of CD59‐Neg RETs per 10^6 RETs mean ± SD [8]: 1.6 ± 1.5 per 10^6 RETs | %RETs mean ± SD [9]: 2.4 ± 0.9% | Number of CD59‐Neg RBCs per 10^6 RBCs mean ± SD [9]: 1.6 ± 1.6 per 10^6 RBCs | Number of CD59‐Neg RETs per 10^6 RETs mean ± SD [9]: 4.5 ± 5.9 per 10^6 RETs | %RETs mean ± SD [10]: 4.6 ± 0.6% | Number of CD59‐Neg RBCs per 10^6 RBCs mean ± SD [10]: 0.5 ± 0.3 per 10^6 RBCs | Number of CD59‐Neg RETs per 10^6 RETs mean ± SD [10]: 0.7 ± 0.7 per 10^6 RETs | %RETs mean ± SD [11]: 2.7 ± 1.0% | Number of CD59‐Neg RBCs per 10^6 RBCs mean ± SD [11]: 0.7 ± 0.3 per 10^6 RBCs | Number of CD59‐Neg RETs per 10^6 RETs mean ± SD [11]: 1.4 ± 1.1 per 10^6 RETs | %RETs mean ± SD [12]: 2.4 ± 0.8 % | Number of CD59‐Neg RBCs per 10^6 RBCs mean ± SD [12]: 1.1 ± 1.7 per 10^6 RBCs | Number of CD59‐Neg RETs per 10^6 RETs mean ± SD [12]: 0.4 ± 0.4 per 10^6 RETs | %RETs mean ± SD [13]: 3.4 ± 0.7% | Number of CD59‐Neg RBCs per 10^6 RBCs mean ± SD [13]: 0.5 ± 0.3 per 10^6 RBCs | Number of CD59‐Neg RETs per 10^6 RETs mean ± SD [13]: 1.1 ± 0.9 per 10^6 RETs | %RETs mean ± SD [14]: 3.6 ± 0.6% | Number of CD59‐Neg RBCs per 10^6 RBCs mean ± SD [14]: 0.4 ± 0.2 per 10^6 RBCs | Number of CD59‐Neg RETs per 10^6 RETs mean ± SD [14]: 0.9 ± 0.7 per 10^6 RETs | %RETs mean ± SD [15]: 3.1 ± 0.2% | Number of CD59‐Neg RBCs per 10^6 RBCs mean ± SD [15]: 0.5 ± 0.3 per 10^6 RBCs | Number of CD59‐Neg RETs per 10^6 RETs mean ± SD [15]: 1.2 ± 1.2 per 10^6 RETs | %RETs mean ± SD [16]: 2.7 ± 0.4% | Number of CD59‐Neg RBCs per 10^6 RBCs mean ± SD [16]: 0.4 ± 0.2 per 10^6 RBCs | Number of CD59‐Neg RETs per 10^6 RETs mean ± SD [16]: 0.7 ± 1.3 per 10^6 RETs | %RETs mean ± SD [17]: 3.3 ± 0.8% | Number of CD59‐Neg RBCs per 10^6 RBCs mean ± SD [17]: 0.4 ± 0.2 per 10^6 RBCs | Number of CD59‐Neg RETs per 10^6 RETs mean ± SD [17]: 2.0 ± 2.1 per 10^6 RETs | %RETs mean ± SD [18]: 4.8 ± 0.8 % | Number of CD59‐Neg RBCs per 10^6 RBCs mean ± SD [18]: 0.6 ± 0.2 per 10^6 RBCs | Number of CD59‐Neg RETs per 10^6 RETs mean ± SD [18]: 1.8 ± 2.4 per 10^6 RETs | %RETs mean ± SD (3-Day Study, 1,000 mg/kg/day Days 1-3, Day 30): 3.3 ± 0.4%
